Reference: ChEMBL document CHEMBL5360657, “Discovery of the TLR7/8 Antagonist MHV370 for Treatment of Systemic Autoimmune Diseases” (ACS Med Chem Lett, 2023)
Converted amounts (≈) assume the structure as drawn.

Legend:
[1] = biological target: T1, Cytochrome P450 3A4 (Homo sapiens, UniProt P08684); test: Inhibition of CYP3A4 (unknown origin); format: ADME
[2] = Metabolic stability in mouse liver microsomes assessed as intrinsic clearance; format: ADME, Microsome; details: read-out: CLH
[3] = biological target: T2, Toll-like receptor 9 (Homo sapiens, UniProt Q9NR96); test: Antagonist activity at TLR9 in human PBMC cells assessed as reduction in IFN alpha measured after 20 hrs by AlphaLISA assay; format: cell-based
T2 sequence (Q9NR96 whole entry): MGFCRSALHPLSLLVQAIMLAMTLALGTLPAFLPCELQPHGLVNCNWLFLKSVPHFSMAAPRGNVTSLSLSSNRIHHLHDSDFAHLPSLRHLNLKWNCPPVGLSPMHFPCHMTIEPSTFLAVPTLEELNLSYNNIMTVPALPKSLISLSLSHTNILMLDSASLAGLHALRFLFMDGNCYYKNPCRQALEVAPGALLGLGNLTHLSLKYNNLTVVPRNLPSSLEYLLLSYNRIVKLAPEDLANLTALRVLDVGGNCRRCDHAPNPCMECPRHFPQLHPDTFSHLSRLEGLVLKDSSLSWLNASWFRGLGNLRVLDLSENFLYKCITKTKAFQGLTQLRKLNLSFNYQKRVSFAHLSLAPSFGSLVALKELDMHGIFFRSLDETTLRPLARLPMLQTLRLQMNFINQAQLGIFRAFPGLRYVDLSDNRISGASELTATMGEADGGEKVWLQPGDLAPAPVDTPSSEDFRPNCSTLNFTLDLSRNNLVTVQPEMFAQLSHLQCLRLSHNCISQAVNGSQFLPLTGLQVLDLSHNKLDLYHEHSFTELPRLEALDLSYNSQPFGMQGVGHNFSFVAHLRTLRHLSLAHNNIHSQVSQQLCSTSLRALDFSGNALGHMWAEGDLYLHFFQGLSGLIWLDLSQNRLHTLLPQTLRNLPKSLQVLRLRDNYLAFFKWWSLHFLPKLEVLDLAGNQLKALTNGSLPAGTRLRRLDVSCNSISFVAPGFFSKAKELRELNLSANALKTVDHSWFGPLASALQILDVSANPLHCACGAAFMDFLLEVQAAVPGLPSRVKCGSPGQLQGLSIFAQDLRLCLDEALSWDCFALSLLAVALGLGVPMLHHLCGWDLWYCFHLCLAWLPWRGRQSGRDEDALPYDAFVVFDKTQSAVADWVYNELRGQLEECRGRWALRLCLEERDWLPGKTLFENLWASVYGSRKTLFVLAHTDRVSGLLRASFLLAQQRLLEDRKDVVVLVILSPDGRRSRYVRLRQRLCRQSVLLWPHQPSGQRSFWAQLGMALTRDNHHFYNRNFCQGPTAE

[4] = biological target: T1, Cytochrome P450 3A4; test: Time dependent inhibition of CYP3A4 (unknown origin) assessed as Kobs; format: ADME
[5] = Permeability of the compound by PAMPA; format: ADME
[6] = Solubility of the compound; format: physicochemical
[7] = biological target: T3, Toll-like receptor 8 (Homo sapiens, UniProt Q9NR97); test: Antagonist activity at TLR8 in human PBMC cells […] assessed as reduction in IL-6 level measured after 20 hrs by AlphaLISA assay; format: cell-based
T3 sequence (Q9NR97 whole entry): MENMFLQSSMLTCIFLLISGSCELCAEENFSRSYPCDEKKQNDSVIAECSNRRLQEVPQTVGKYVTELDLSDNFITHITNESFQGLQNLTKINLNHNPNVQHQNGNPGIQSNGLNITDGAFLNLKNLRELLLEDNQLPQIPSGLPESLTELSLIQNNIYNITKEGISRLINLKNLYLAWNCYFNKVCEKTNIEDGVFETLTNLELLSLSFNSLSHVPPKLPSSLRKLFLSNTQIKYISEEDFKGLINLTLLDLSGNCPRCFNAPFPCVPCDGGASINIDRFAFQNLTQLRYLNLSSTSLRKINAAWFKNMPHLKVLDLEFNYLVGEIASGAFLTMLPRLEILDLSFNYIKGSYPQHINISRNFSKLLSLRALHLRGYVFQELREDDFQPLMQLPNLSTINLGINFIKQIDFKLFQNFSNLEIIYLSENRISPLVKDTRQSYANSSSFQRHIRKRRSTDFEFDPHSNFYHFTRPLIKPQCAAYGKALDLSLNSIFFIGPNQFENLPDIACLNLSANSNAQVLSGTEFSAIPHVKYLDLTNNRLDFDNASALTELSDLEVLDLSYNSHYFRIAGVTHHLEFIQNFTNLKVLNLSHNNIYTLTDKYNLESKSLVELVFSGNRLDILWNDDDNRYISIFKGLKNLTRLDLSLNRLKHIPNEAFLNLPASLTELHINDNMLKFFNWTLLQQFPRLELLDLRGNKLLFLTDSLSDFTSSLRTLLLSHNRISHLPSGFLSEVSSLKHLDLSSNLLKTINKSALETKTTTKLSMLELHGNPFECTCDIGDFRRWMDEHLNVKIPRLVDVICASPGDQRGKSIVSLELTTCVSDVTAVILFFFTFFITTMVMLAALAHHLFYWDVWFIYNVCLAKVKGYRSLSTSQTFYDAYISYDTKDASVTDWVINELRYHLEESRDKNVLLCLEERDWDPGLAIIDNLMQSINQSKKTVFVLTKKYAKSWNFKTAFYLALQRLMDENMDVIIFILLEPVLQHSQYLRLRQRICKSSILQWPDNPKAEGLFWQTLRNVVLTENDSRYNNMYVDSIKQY

[8] = Metabolic stability in rat liver microsomes assessed as intrinsic clearance; format: ADME, Microsome; details: read-out: CLH
[9] = Metabolic stability in human liver microsomes assessed as intrinsic clearance; format: ADME, Microsome; details: read-out: CLH
[10] = biological target: Voltage-gated inwardly rectifying potassium channel KCNH2 (Homo sapiens, UniProt Q12809); test: Displacement of [3H]-dofetilite from human ERG (unknown origin); format: toxicity
Sequence of Voltage-gated inwardly rectifying potassium channel KCNH2 (Q12809 whole entry): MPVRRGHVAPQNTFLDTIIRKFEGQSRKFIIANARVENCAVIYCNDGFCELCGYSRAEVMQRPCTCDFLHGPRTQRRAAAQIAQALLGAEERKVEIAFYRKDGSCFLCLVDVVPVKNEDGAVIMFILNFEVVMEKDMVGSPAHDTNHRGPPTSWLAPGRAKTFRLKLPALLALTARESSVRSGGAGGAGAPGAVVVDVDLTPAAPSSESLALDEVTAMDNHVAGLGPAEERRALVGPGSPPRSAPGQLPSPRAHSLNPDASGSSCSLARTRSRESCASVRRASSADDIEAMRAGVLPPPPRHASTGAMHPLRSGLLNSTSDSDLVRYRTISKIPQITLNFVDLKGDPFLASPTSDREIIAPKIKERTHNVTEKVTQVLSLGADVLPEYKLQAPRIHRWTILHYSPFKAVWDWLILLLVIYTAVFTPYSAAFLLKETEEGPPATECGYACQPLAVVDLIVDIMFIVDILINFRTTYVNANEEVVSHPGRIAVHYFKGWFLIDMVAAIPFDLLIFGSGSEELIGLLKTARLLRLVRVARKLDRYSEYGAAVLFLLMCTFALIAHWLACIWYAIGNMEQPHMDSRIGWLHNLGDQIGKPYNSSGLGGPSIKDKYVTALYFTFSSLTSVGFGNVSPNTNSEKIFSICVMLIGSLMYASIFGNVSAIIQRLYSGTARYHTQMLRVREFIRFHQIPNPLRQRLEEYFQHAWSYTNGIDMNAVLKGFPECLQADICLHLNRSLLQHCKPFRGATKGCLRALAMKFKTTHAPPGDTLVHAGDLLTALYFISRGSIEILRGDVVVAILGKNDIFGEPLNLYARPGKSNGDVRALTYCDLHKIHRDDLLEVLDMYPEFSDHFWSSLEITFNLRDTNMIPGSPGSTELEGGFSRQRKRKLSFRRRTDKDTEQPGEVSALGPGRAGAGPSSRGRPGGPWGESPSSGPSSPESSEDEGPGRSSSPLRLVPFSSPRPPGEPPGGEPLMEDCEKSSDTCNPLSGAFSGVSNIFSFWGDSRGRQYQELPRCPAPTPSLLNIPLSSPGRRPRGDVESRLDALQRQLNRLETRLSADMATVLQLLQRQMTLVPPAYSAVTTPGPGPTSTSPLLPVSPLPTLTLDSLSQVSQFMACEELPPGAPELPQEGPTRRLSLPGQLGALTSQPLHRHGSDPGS

[11] = biological target: T4, Toll-like receptor 7 (Homo sapiens, UniProt Q9NYK1); test: Antagonist activity at TLR7 in human PBMC cells assessed as reduction in IFN alpha measured after 20 hrs by AlphaLISA assay; format: cell-based
T4 sequence (Q9NYK1 whole entry): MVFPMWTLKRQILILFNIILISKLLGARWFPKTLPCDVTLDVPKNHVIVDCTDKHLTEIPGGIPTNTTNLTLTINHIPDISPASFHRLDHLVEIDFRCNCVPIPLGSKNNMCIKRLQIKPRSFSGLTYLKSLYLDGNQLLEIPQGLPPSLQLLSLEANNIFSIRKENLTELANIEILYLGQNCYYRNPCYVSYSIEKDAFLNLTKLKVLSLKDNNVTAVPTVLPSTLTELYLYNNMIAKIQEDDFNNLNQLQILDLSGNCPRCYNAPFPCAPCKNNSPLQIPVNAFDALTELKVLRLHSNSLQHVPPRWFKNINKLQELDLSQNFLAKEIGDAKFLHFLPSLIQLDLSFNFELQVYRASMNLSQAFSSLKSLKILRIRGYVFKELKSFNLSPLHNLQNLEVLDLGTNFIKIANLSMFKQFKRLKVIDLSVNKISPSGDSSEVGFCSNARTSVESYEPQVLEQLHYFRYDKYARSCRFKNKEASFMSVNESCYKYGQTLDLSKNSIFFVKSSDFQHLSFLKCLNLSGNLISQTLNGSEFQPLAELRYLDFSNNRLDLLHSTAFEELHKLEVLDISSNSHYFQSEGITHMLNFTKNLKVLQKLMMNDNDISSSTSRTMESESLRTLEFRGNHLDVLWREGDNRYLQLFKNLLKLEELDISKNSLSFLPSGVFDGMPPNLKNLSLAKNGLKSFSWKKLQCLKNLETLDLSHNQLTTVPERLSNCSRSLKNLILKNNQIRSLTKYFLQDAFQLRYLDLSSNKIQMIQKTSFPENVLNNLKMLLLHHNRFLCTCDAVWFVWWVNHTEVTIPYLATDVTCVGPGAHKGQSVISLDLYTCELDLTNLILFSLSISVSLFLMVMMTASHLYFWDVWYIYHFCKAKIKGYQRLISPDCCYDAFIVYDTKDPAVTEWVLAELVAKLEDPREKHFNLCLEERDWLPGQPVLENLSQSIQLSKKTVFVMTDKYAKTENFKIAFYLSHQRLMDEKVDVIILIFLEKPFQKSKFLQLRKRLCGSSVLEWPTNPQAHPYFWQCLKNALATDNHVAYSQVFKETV

T1 sequence (P08684 whole entry): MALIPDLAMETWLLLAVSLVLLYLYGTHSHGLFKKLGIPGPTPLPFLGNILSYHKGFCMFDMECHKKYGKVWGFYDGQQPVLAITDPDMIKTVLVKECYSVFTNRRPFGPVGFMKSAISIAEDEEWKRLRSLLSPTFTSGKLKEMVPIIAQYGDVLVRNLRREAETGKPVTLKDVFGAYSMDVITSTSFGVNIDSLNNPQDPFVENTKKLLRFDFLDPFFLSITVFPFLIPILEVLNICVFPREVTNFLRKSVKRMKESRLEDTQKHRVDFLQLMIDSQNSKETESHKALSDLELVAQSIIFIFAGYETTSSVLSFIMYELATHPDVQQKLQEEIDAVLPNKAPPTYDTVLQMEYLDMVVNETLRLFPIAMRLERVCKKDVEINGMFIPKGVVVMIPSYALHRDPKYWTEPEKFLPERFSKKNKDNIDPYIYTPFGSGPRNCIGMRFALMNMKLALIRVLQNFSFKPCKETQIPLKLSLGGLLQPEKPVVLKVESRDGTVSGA

| SMILES | IC50 [1] [µM] | microsomal CLint [2] [µL/min/mg] | IC50 [3] [nM] | Kobs [4] [min⁻¹] | log(permeability) [5] | solubility [6] [µM] | IC50 [7] [nM] | microsomal CLint [8] [µL/min/mg] | microsomal CLint [9] [µL/min/mg] | IC50 [10] [µM] | IC50 [11] [nM] |
| --- | --- | --- | --- | --- | --- | --- | --- | --- | --- | --- | --- |
| CNC12CCC(Cn3nc(C)c4c3CCN(c3cc(C)nc5c3cnn5C)C4)(CC1)CC2 | > 50 | 28 | 440 | 0.008 | -5.3 | > 175 | 330 | < 15 | < 15 | > 30 | 7 |
| COCCNC12CCC(Cn3nc(C)c4c3CCN(c3cc(C)nc5c3cnn5C)C4)(CC1)CC2 | – | < 15 | 350 | – | -4.8 | > 175 | 50 | < 15 | 27 | 22 | 10 |
| Cc1cc(N2CCc3c(c(C)nn3CC34CCC(NCC(F)F)(CC3)CC4)C2)c2cnn(C)c2n1 | 8.6 | – | – | 0.011 | -3.7 | > 175 | 140 | 656 | 423 | > 30 | – |
| Cc1cc(N2CCc3c(c(C)nn3CC34CCC(N5CCN(C)C(=O)C5)(CC3)CC4)C2)c2cnn(C)c2n1 | > 50 | 103 | > 7300 | 0.015 | -5 | – | 400 | 87 | 39 | > 30 | 56 |
| CC(=O)NC12CCC(Cn3nc(C)c4c3CCN(c3cc(C)nc5c3cnn5C)C4)(CC1)CC2 | 24 | – | 5200 | 0.022 | -4.6 | > 175 | > 10000 | 45 | 63 | > 30 | – |
| Cc1cc(N2CCc3c(c(C)nn3CC34CCC(N5CCOCC5)(CC3)CC4)C2)c2cnn(C)c2n1 | > 50 | 246 | 2100 | 0.038 | -4.1 | > 175 | 30 | 175 | 130 | > 30 | – |
| Cc1cc(N2CCc3c(c(C)nn3CC34CCC(NS(C)(=O)=O)(CC3)CC4)C2)c2cnn(C)c2n1 | > 50 | – | > 10000 | 0.021 | -4.8 | 120 (≈ 59.7 µg/mL) | > 10000 | 78 | 107 | > 30 | 8 |
| Cc1cc(N2CCc3c(c(C)nn3CC34CCC(NC5CCC5)(CC3)CC4)C2)c2cnn(C)c2n1 | 28 | 77 | 550 | 0.037 | -4.2 | > 175 | 71 | 28 | 52 | 25 | – |
| Cc1cc(N2CCc3c(c(C)nn3CC34CCC(N5CCCC5)(CC3)CC4)C2)c2cnn(C)c2n1 | 18 | 24 | 350 | 0.022 | -4.7 | > 175 | 85 | 55 | 62 | 11 | – |
